Source: US6423352B1 (priority 1998, dated 2002)
Like-named read-outs stand apart in the source and are kept apart here.

Legend:
Assay type in all cases: in vivo
Phytophthora infestans [1] = conditions: for % diseased leaf area, late blight potato, 5 d: Example 17, none 100; for % Protection, late blight in potato / Diseased leaf area, late blight in potato: Example 2; for Diseased leaf area, late blight in potato: recorded 4 days post inoculation, untreated control 98
[2] = test system: Erysiphe graminis tritici; test: powdery mildew in wheat: sprayed plants inoculated, diseased leaf area recorded; conditions: for % diseased leaf area, powdery mildew wheat, 8 d: Example 17, none 69; for % diseased leaf area, wheat powdery mildew, 10 d: Example 14, solvent conc. 1%, inoculation three hours after spray, none (control) 50
Experimental: (§1) To test the efficacy of these extracts and suspensions, experiments were performed in which plants were sprayed using a fine glass atomizer with either Inula extract or with pure solvent as a control for the Inula extracts, with either Inula extract and emulsifier or with an emulsifier solution as a control for the emulsified Inula extracts, and with either Inula suspension or with water or emulsifier solution as a control for the Inula suspensions. Treated and control plants were then inoculated with a crop-respective fungal pathogen. After an incubation period, the extent of the infection was measured. Unless otherwise stated, percentage protection from the disease due to the treatment with the Inula extract or suspension was calculated as:
(§2) % control of the disease=[1−(% infection and treated plants/% infection in control plants)]×100.
The crop plants and pathogens used for inoculation are described in the following list.
Inoculation with P. infestants, P. cubensis, P. tabacina, P. viticola, B. cinera and C. fulvum was done by spraying a spore suspension in distilled water onto the upper leaf surfaces of the treated (and the control) plants. Inoculated plants were kept in a dew chamber at 18-20° C. in the dark for 16-20 hours and then in a growth chamber at 20° C. with 12 hours photoperiod. Inoculation with E. graminis and S. fuliginea was done by blowing spores over the treated (and control) plants. Inoculated plants were then kept in a growth chamber as above.
(§3) Disease records were visually estimated in the inoculated plants at 3-13 days after inoculation, depending on the crop and disease. Percentage leaf area occupied with disease symptoms or fungal colonies was recorded and given in the results section.

Phytophthora infestans [3] = conditions: for % diseased leaf area, late blight tomato, 5 d: Example 17, none 81; for % diseased leaf area, solvent control: Example 12, late blight in tomato, untreated control 81
[4] = test system: Pseudoperonospora cubensis; test: downy mildew in cucumber: sprayed plants inoculated, disease recorded; conditions: Example 14; solvent conc. 1%; inoculation three hours after spray; none (control) 88
Experimental: as §1, §2
The crop plants and pathogens used for inoculation are described in the following list. […]
as §3

c1c[nH]cn1 [Imidazole only, imidazole]
% diseased leaf area, late blight potato, 5 d (Phytophthora infestans [1]; imidazole only 0.12% pH 9.55): 50%
% diseased leaf area, late blight potato, 5 d (Phytophthora infestans [1]; imidazole only 0.25% pH 9.70): 50%
% diseased leaf area, late blight potato, 5 d (Phytophthora infestans [1]; imidazole only 0.5% pH 9.86): 25%
% diseased leaf area, late blight potato, 5 d (Phytophthora infestans [1]; imidazole only 1% pH 9.95): 18%
% diseased leaf area, powdery mildew wheat, 8 d ([2]; imidazole only 0.12% pH 9.55): 63%
% diseased leaf area, powdery mildew wheat, 8 d ([2]; imidazole only 0.25% pH 9.70): 50%
% diseased leaf area, powdery mildew wheat, 8 d ([2]; imidazole only 0.5% pH 9.86): 23%
% diseased leaf area, powdery mildew wheat, 8 d ([2]; imidazole only 1% pH 9.95): 25%
% diseased leaf area, late blight tomato, 5 d (Phytophthora infestans [3]; imidazole only 0.12% pH 9.55): 95%
% diseased leaf area, late blight tomato, 5 d (Phytophthora infestans [3]; imidazole only 0.25% pH 9.70): 88%
% diseased leaf area, late blight tomato, 5 d (Phytophthora infestans [3]; imidazole only 0.5% pH 9.86): 69%
% diseased leaf area, late blight tomato, 5 d (Phytophthora infestans [3]; imidazole only 1% pH 9.95): 50%

N.O [NH4OH, ammonium hydroxide]
% Protection, late blight in potato (Phytophthora infestans [1]; NH4OH 1%): 0%
Diseased leaf area, late blight in potato (Phytophthora infestans [1]; NH4OH 1%): 100
% Protection, late blight in potato (Phytophthora infestans [1]; NH4OH 2%): 0%
Diseased leaf area, late blight in potato (Phytophthora infestans [1]; NH4OH 2%): 100
% Protection, late blight in potato (Phytophthora infestans [1]; NH4OH 4%): 0%
Diseased leaf area, late blight in potato (Phytophthora infestans [1]; NH4OH 4%): 100
% Protection, late blight in potato (Phytophthora infestans [1]; NH4OH 8% (= 2% aqueous NH3)): 0%
Diseased leaf area, late blight in potato (Phytophthora infestans [1]; NH4OH 8% (= 2% aqueous NH3), inoculated 2 days after spray): 100

C1CNCCN1.O [piperazine hydrate]
% diseased leaf area, solvent control (Phytophthora infestans [3]; solvent alone 0.05M): 81%
% diseased leaf area, solvent control (Phytophthora infestans [3]; solvent alone 0.1M): 81%

C1CCNCC1 [piperidine]
% diseased leaf area, cucumber downy mildew, 6 d [4]: 94%
% diseased leaf area, wheat powdery mildew, 10 d [2]: 25%
% diseased leaf area, Tomato late blight, 4 d (Phytophthora infestans [3]; Example 14, solvent conc. 1%, inoculation three hours after spray, none (control) 88): 88%

tetraethylene
% diseased leaf area, cucumber downy mildew, 6 d [4]: 31%
% diseased leaf area, wheat powdery mildew, 10 d [2]: 50%
% diseased leaf area, Tomato late blight, 4 d (Phytophthora infestans [3]; in vivo): 63%
